From the NIST ThermoML archive (doi:10.1021/je049814b)

Test: wn = mass fraction of the nth substance listed
Conditions: Liquid, Coaxial cylinder method

[Br-].[K+] [potassium bromide] + O
thermal conductivity [W/m/K]
Conditions	100 kPa	2000 kPa	10000 kPa	40000 kPa
294.7 K, w1 = 0.1	0.578	0.578	0.582	0.592
295.7 K, w1 = 0.3	0.521	0.521	0.525	0.532
296.8 K, w1 = 0.2	0.553	0.553	0.557	0.565
320.9 K, w1 = 0.1	0.612	0.612	0.617	0.628
321.4 K, w1 = 0.3	0.554	0.554	0.559	0.569
325.4 K, w1 = 0.2	0.589	0.589	0.595	0.602
351.2 K, w1 = 0.2	0.616	0.616	0.62	0.629
354.8 K, w1 = 0.1	0.644	0.644	0.65	0.662
357.6 K, w1 = 0.3	0.588	0.588	0.591	0.601
381.3 K, w1 = 0.1	0.661	0.661	0.669	0.682
384.2 K, w1 = 0.3	0.601	0.601	0.605	0.616
387.6 K, w1 = 0.2	0.634	0.634	0.638	0.647
403.2 K, w1 = 0.1	0.661	0.661	0.667	0.683
406.2 K, w1 = 0.2	0.632	0.632	0.638	0.648
409.6 K, w1 = 0.3	0.6	0.6	0.606	0.618
425.9 K, w1 = 0.1	0.657	0.657	0.662	0.681
427.2 K, w1 = 0.3	0.598	0.598	0.604	0.616
431.2 K, w1 = 0.2	0.628	0.628	0.634	0.646
456.9 K, w1 = 0.2	0.616	0.616	0.623	0.635
457.6 K, w1 = 0.1	0.643	0.643	0.65	0.665
463.1 K, w1 = 0.3	0.582	0.582	0.586	0.599
481.3 K, w1 = 0.2	–	–	0.609	0.623
488.2 K, w1 = 0.1	–	–	0.628	0.65
494.2 K, w1 = 0.3	–	–	0.564	0.579
516.3 K, w1 = 0.3	–	–	0.542	0.562
519.3 K, w1 = 0.1	–	–	0.598	0.622
520.6 K, w1 = 0.2	–	–	0.575	0.592
539.7 K, w1 = 0.3	–	–	0.511	0.538
543.2 K, w1 = 0.1	–	–	0.569	0.597
547.6 K, w1 = 0.2	–	–	0.539	0.564
571.3 K, w1 = 0.2	–	–	0.501	0.534
571.9 K, w1 = 0.1	–	–	0.522	0.55
575.6 K, w1 = 0.3	–	–	0.455	0.496

[Br-].[Na+] [sodium bromide] + O
thermal conductivity [W/m/K]
Conditions	100 kPa	2000 kPa	10000 kPa	40000 kPa
294.3 K, w1 = 0.1	0.58	0.58	0.586	0.596
294.7 K, w1 = 0.38	0.504	0.504	0.512	0.525
296 K, w1 = 0.2	0.56	0.56	0.565	0.575
297.2 K, w1 = 0.3	0.537	0.537	0.541	0.55
319.6 K, w1 = 0.38	0.531	0.531	0.536	0.549
319.9 K, w1 = 0.2	0.595	0.595	0.599	0.609
321.7 K, w1 = 0.1	0.618	0.618	0.624	0.635
323.9 K, w1 = 0.3	0.573	0.573	0.578	0.587
347.2 K, w1 = 0.38	0.56	0.56	0.565	0.578
350.2 K, w1 = 0.2	0.624	0.624	0.628	0.639
354.2 K, w1 = 0.1	0.648	0.648	0.653	0.664
357.7 K, w1 = 0.3	0.601	0.601	0.608	0.617
374.5 K, w1 = 0.38	0.58	0.58	0.589	0.603
377.9 K, w1 = 0.2	0.637	0.637	0.642	0.653
378.6 K, w1 = 0.1	0.659	0.659	0.663	0.674
380.2 K, w1 = 0.3	0.61	0.61	0.617	0.627
396.5 K, w1 = 0.2	0.643	0.643	0.648	0.659
398.7 K, w1 = 0.38	0.585	0.585	0.593	0.609
399.2 K, w1 = 0.1	0.664	0.664	0.669	0.679
401 K, w1 = 0.3	0.615	0.615	0.623	0.633
424.5 K, w1 = 0.38	0.585	0.585	0.593	0.609
426.4 K, w1 = 0.3	0.614	0.614	0.624	0.637
427.5 K, w1 = 0.1	0.664	0.664	0.671	0.682
429.2 K, w1 = 0.2	0.643	0.643	0.649	0.659
450.6 K, w1 = 0.2	0.632	0.632	0.638	0.652
453.7 K, w1 = 0.1	0.652	0.652	0.659	0.672
455 K, w1 = 0.3	0.6	0.6	0.608	0.621
456.7 K, w1 = 0.38	0.572	0.572	0.583	0.6
483.2 K, w1 = 0.2	–	–	0.618	0.634
483.2 K, w1 = 0.38	–	–	0.569	0.59
486.2 K, w1 = 0.1	–	–	0.639	0.66
515.3 K, w1 = 0.1	–	–	0.611	0.634
515.7 K, w1 = 0.38	–	–	0.535	0.565
519.4 K, w1 = 0.2	–	–	0.583	0.601
541.3 K, w1 = 0.38	–	–	0.504	0.539
542.7 K, w1 = 0.1	–	–	0.576	0.604
547.6 K, w1 = 0.2	–	–	0.546	0.571
576.2 K, w1 = 0.2	–	–	0.504	0.535
576.5 K, w1 = 0.38	–	–	0.454	0.494
577.3 K, w1 = 0.1	–	–	0.525	0.566
